Source: the OPERA property sets (Mansouri et al. 2018)
Values after ≈ are worked out from the molar mass of the structure shown.

Conditions: for solubility: 20 °C

For `COP(=S)(OC)SCSc1ccc(Cl)cc1`, which solubility is on record?
Its solubility is 5.08 µM (≈ 1.6 µg/mL).

Which solubility does the source give for `CNC(=O)Oc1ccccc1OC(C)C` here?
The solubility was 8890 µM (≈ 1860 µg/mL).

For `COP(=S)(OC)Oc1ccc(SC)c(C)c1`, which solubility is on record?
Its solubility is 26.9 µM (≈ 7.5 µg/mL).

For `CCOP(=S)(OCC)SCn1nnc2ccccc2c1=O`, which solubility is on record?
The solubility was 30.4 µM (≈ 10.5 µg/mL).

For `CCOC(=O)CC(SP(=S)(OC)OC)C(=O)OCC` (configuration not stated), which solubility is on record?
The solubility was 433 µM (≈ 143 µg/mL).

For `CNC(=O)Oc1ccc(N(C)C)c(C)c1`, which solubility is on record?
The solubility was 4390 µM (≈ 915 µg/mL).

For `COP(=S)(OC)SCN1C(=O)c2ccccc2C1=O`, which solubility is on record?
Its solubility is 76.9 µM (≈ 24.4 µg/mL).

With `CCOP(=O)(OCC)SCS(=O)(=O)CC` as the molecule, how does the logP read?
Its logP is 1.98.

With `COc1nn(CSP(=S)(OC)OC)c(=O)s1` as the molecule, how does the solubility read?
The solubility was 619 µM (≈ 187 µg/mL).

For `COP(=S)(OC)Oc1ccc([N+](=O)[O-])cc1`, which solubility is on record?
The solubility was 143 µM (≈ 37.7 µg/mL).

For `CCOP(=O)(OCC)OC(=CCl)c1ccc(Cl)cc1Cl`, which solubility is on record?
Its solubility is 345 µM (≈ 124 µg/mL).

Which solubility does the source give for `COP(=S)(OC)Oc1ccc([N+](=O)[O-])cc1Cl` here?
The solubility was 49.4 µM (≈ 14.7 µg/mL).
